The values below are quoted from earlier work in US20180271827A1, “CANNABINOID COMPOSITIONS AND METHODS OF MAKING” (Pasenture, Inc., priority 2015, published 2018).

SMILES strings stand for the structures. “Also recorded” adds a separate entry of the source.

The conditions of the first data set: Table A, representative terpenes; properties or predicted properties.
In the case of `C=CC(=C)CCC=C(C)C` [ß-myrcene], the Properties result is recorded as “Analgesic. Antiinflammatory, Antibiotic,; also recorded: Antimutagenic”.
Regarding `C=C(C)[C@H]1CC=C(C)CC1` [d-limonene], the Properties entry is given as “Antidepressant, Antimutagenic”.
As for `Cc1ccc(C(C)C)cc1` [p-cymene], the Properties entry is reported as “Antibiotic, Anticandidal, AChE inhibitor”.
Regarding `CC1=CCC(O)(C(C)C)CC1` (stereo not drawn) [terpineol-4-ol], the Properties result is recorded as “AChE inhibitor, Antibiotic”.
In the case of `C=C1CC/C=C(/C)CC[C@@H]2[C@@H]1CC2(C)C` [ß-caryophyllene], the Properties result is “Antiinflammatory, Cytoprotective (gastric mucosa),; also recorded: Antimalarial”.
As for `CC1=CC[C@@H](C(C)(C)O)CC1` [a-terpineol], the Properties entry is on record as “Sedative, Antibiotic, AChE inhibitor, Antioxidant,; also recorded: Antimalarial”.
As to `CC(C)=C1CC[C@@H](C)CC1=O` [pulegone], the Properties result is “Antipyretic”.
Regarding `CC1=CCC2CC1C2(C)C` (stereo not drawn) [a-pinene], the Properties entry was “Antiinflammatory, Bronchodilator, Stimulant,; also recorded: Antibiotic, Antineoplastic, AChE inhibitor”.
Take `C=CC(C)(O)CCC=C(C)C` (stereo not drawn) [linalool]: the Properties result was “Sedative, Antidepressant, Anxiolytic, Immune; also recorded: potentiator”.
Take `CC12CCC(CC1)C(C)(C)O2` [1,8-cineole (eucalyptol), 1,8-cineole]: the Properties result is reported as “AChE inhibitor, Increases cerebral, blood flow,; also recorded: Stimulant, Antibiotic, Antiviral, Antiinflammatory,; also recorded: Antinociceptive”.

Still in this data set, the particulars now being: Table B, representative cannabinoids; properties or predicted properties.
As for `CCCCCc1cc(O)c2c(c1)OC(C)(C)[C@@H]1CC=C(C)C[C@@H]21` [?-8-tetrahydrocannabinol (?-8-THC), ?-8-tetrahydrocannabinol], the Properties entry was “Resembles ?-9-THC, Less psychoactive,; also recorded: More stable Antiemetic”.
As for `CCCCCc1cc(O)c2c(c1)OC(C)(C)c1ccc(C)cc1-2` [Cannabinol (CBN), Cannabinol], the Properties result is given as “Oxidation, breakdown, product,; also recorded: Sedative, Antibiotic”.
As to `CCCCCc1cc(O)c2c(c1)OC(C)(C)[C@@H]1CCC(C)=C[C@@H]21` [9-tetrahydrocannabinol (THC), 9-tetrahydrocannabinol, reference compound], the Properties entry is “Euphoriant, Analgesic,; also recorded: Antiinflammatory, Antioxidant,; also recorded: Antiemetic”.
Take `CCCc1cc(O)c2c(c1)OC(C)(C)[C@@H]1CCC(C)=C[C@@H]21` [tetrahydrocannabivarin (THCV), tetrahydrocannabivarin]: the Properties result was “Analgesic, Euphoriant”.
As to `CCCCCc1cc(O)c(C/C=C(\C)CCC=C(C)C)c(O)c1` [cannabigerol (CBG), cannabigerol], the Properties entry was “Antiinflammatory, Antibiotic,; also recorded: Antifungal”.
In the case of `C=C(C)[C@@H]1CCC(C)=C[C@H]1c1c(O)cc(CCCCC)cc1O` [cannabidiol (CBD), cannabidiol, reference compound], the Properties entry is recorded as “Antispasmodic; also recorded: Anxiolytic, Analgesic, Antipsychotic,; also recorded: Antiinflammatory, Antioxidant,”.
On to `CCCCCc1cc(O)c2c(c1)OC(C)(CCC=C(C)C)C=C2` (stereo not drawn) [cannabichromene (CBC), cannabichromene], for which the Properties result is listed as “Antiinflammatory, Antibiotic,; also recorded: Antifungal”.

The same data set, now with this note: Table C, flavonoid and phytosterol components derived from cannabis plants; properties or predicted properties.
Consider `O=c1cc(-c2ccc(O)cc2)oc2cc(O)cc(O)c12` [apigenin], for which the Properties result was “Anxiolytic, Antiinflammatory, Estrogenic”.
`O=c1c(O)c(-c2ccc(O)c(O)c2)oc2cc(O)cc(O)c12` [quercetin]: the Properties entry is recorded as “Antioxidant, Antimutagenic, Antiviral,; also recorded: Antineoplastic”.
As for `COc1cc(-c2cc(=O)c3c(O)c(C/C=C(\C)CCC=C(C)C)c(O)cc3o2)ccc1O` [cannflavin A], the Properties result was “COX inhibitor, LO inhibitor”.
Regarding `CC[C@H](CC[C@@H](C)[C@H]1CC[C@H]2[C@@H]3CC=C4C[C@@H](O)CC[C@]4(C)[C@H]3CC[C@]12C)C(C)C` [ß-sitosterol], the Properties entry was “Antiinflammatory, 5-a-reductase, inhibitor”.
